{"source": "patent US20230151432A1", "about": "“KIF18A INHIBITORS FOR TREATMENT OF NEOPLASTIC DISEASES” (AMGEN INC., priority 2020, published 2023)", "key": {"OVCAR-8 tumors": {"system": "OVCAR-8 tumors", "assay": "OVCAR-8 Tumor Xenograft Efficacy Study (IP)", "format": "in vivo, mouse", "description": "Animals were dosed IP daily with vehicle alone, C9 (50 or 100 mg/kg), or C12 (25 or 50 mg/kg). […] Tumor volume and body weight assessment performed as described above. After the final dose on day 46, plasma pharmacokinetic analysis was performed as described above except blood was drawn by retro-orbital bleed method."}, "MDA-MB-157 TNBC cells": {"system": "MDA-MB-157 TNBC cells", "assay": "Centrosome immunofluorescence imaging and cl-PARP Western blotting (Example 6)", "format": "cell-based, human", "conditions": "0.5 μM; 24 h imaging, 48 h Western; TP53 mutant, CCNE1 amplified", "description": "To analyze the effects of a KIF18A inhibitor on mitotic centrosome/chromosome features and apoptosis of cancer cells, centrosome features in CAL-51 and MDA-MB-157 TNBC cells were analyzed by an immunofluorescence imaging analysis. Cells were seeded into Cell Carrier Ultra 96-well Polystyrene plate (PerkinElmer) in 200 μL of complete media and grown. […] Cells were washed twice with 200 μL Wash Buffer (1×PBS/0.5% BSA, Rockland Immunochemicals). Cells are stained with 100 μL anti-CETN3 mouse antibody (1:2000, H00001070-M01, Abnova) and anti-pericentrin rabbit antibody (1:2000, ab4448-100, Abcam) in 200 μL of Wash Buffer and incubated overnight at 4° C. Cells were washed twice with 200 μL Wash Buffer. Cells were stained with 100 μL secondary antibodies [goat anti-mouse IgG-alexa-488 (1:1000, A1 1029, Invitrogen) and goat anti-rabbit IgG-alexa-647 (1:1000, A21244, Invitrogen) in Wash Buffer for 2 hours at room temperature protected for light. Cells were washed twice followed by addition of 100 μL Wash Buffer containing Hoechst 33342 DNA dye (2 μg/mL). Cells were imaged on a PerkinElmer Ultraview Vox dual spinning disc confocal microscope using a 60× oil immersion objective with laser excitation wavelengths of 405 nm (Hoechst), 488 nm (alexa-488), and 647 nm (alexa-647). Representative maximal projection images were collected for mitotic objects from each treatment well. […]"}, "[1]": {"system": "p-Histone H3 in OVCAR-3 HGSOC tumor xenografts", "assay": "Tumor pharmacodynamic p-Histone H3 MSD assay", "format": "in vivo, mouse", "conditions": "3, 10, 30, 100 mg/kg; tumor collected 24 hours post-treatment", "method": "Female athymic nude mice were injected with 5×10^6 OVCAR-3 cells in 0.1 mL subcutaneously in the right flank. After tumors were established (average tumor volume of 450 to 750 mm^3), animals were randomized into 5 treatment groups (vehicle alone, KIF18A inhibitor at 3, 10, 30, or 100 mg/kg) with 3 animals per group. Tumor and blood plasma were collected 24 hours post-treatment for pharmacokinetic analysis and tumor for pharmacodynamic analysis. Preparations of tumor protein lysates from snap frozen, pulverized, and lysed and processed using EpiQuik Total Histone Extraction Kit (OP-0006 Epigentek, Farmingdale, N.Y.) protocol. […] Lysates normalized for total protein per well were loaded onto Meso Scale Discovery (MSD) electrochemiluminescent immunoassay plates at 30 μg/well in lysis buffer a processed of pHH3 MSD analysis according to the manufacturer's protocol for the single-plex MSD assays using phospho-Histone H3 (serine-10) antibody (pHH3) and analyzed on a Sector Imager S16000 luminescence detection reader (MSD, Gaithersburg, Md.). Lysates were normalized for total protein and pHH3 fold induction represents the group average raw MSD value divided by the average raw MSD value of the vehicle treated group. […] The fold induction in pHH3 is noted for each KIF18A inhibitor treatment group relative to mean baseline pHH3 signal for vehicle group. […]"}, "[2]": {"system": "panel of cancer cell lines including breast cancer cell lines, ovary cancer cell lines, and a prostate cancer cell line", "assay": "4-day image-based nuclear count assay (NCA), cancer cell line panel", "design": "species or system human", "description": "Eg5 motor inhibitor (Ispinesib) was used as a cytotoxic control. […] Cancer cell lines were seeded in a Corning 96-well Flat Clear Bottom Black Polystyrene plate (Corning, N.Y.) in 100 μL of appropriate complete media at the appropriate density and grown for 24 hours. In one set of experiments, in preparation for cell treatment, a 2× concentration of one of: […] The compound was added to the cells with a final volume of 200 μL in complete media containing 0.5% DMSO. After 4 days (96 hours) or 6 days (144 hours) of treatment, the cells were fixed by removing 100 μL of complete media from each well and replacing it with 100 μL of 2×formaldehyde (final 4%) and incubating the plates for 15 minutes at room temperature. After fixation, the cells were permeabilized and stained in 200 μL Wash Buffer (1% BSA, 0.2% Triton X-100, 1×PBS) containing 2 μg/mL Hoechst 33342 DNA dye. The plates were sealed and incubated for 1 hour at room temperature in the dark. Cells were stored at 4° C. in the dark until data acquisition. Imaging data was acquired on Cellomics ArrayScan VTI HCS Reader (SN03090745F, ThermoFisher Scientific) using the Target Activation V4 Assay protocol (Ve 6.6.0 (Build 8153) with a 10×objective, collected 16-fields per well). […] A Mean Count EC50 value (±SD) across all sensitive cell lines was determined for each test agent."}}}
{"molecule": "CC(C)(C)NS(=O)(=O)c1cccc(NC(=O)c2ccc(S(=O)(=O)NC(C)(C)C)cc2N2CCC3(CC2)CC3)c1", "note": "[Compound C9, 4-(N-(tert-butyl)sulfamoyl)-N-(3-(N-(tert-butyl)sulfamoyl)phenyl)-2-(6-azaspiro[2.5]octan-6-yl)benzamide]", "values": [{"measurement": "tumor regression", "setting": "OVCAR-8 tumors; 50 mg/kg IP once daily for 18 consecutive days", "value": 16, "unit": "%"}, {"measurement": "tumor regression", "setting": "OVCAR-8 tumors; 100 mg/kg IP once daily for 18 consecutive days", "value": 73, "unit": "%"}]}
{"molecule": "CC(C)(CO)Nc1ccc(C(=O)Nc2cccc(S(=O)(=O)C3CCCC3)c2)c(N2CCC3(CC2)CC3)n1", "note": "[Compound C11, N-(3-(cyclopentylsulfonyl)phenyl)-6-((1-hydroxy-2-methylpropan-2-yl)amino)-2-(6-azaspiro[2.5]octan-6-yl)nicotinamide]", "values": [{"measurement": "mitotic cell centrosome features and apoptosis", "setting": "MDA-MB-157 TNBC cells", "value": "selectively induced alterations in mitotic cell centrosome features"}]}
{"molecule": "Cc1cc(NC(=O)c2ccc(NS(=O)(=O)CCO)cc2N2CCC3(CC2)CC3)nc(N2CCC(F)(F)CC2)n1", "note": "[Compound C14, N-(2-(4,4-Difluoropiperidin-1-yl)-6-methylpyrimidin-4-yl)-4-((2-hydroxyethyl)sulfonamido)-2-(6-azaspiro[2.5]octan-6-yl)benzamide]", "values": [{"measurement": "p-Histone H3 mitotic marker levels in tumor", "setting": "[1]", "value": "dose-dependent increase"}, {"measurement": "EC50", "setting": "[2]; Homo sapiens, 96 h, mean across the seven sensitive (TP53 mutant) of twelve cell lines, SD ±0.008", "value": 0.0563, "unit": "µM"}, {"measurement": "sensitivity in nuclear count assay", "setting": "[2]; five Rb-proficient lines: CAL-51, ZR-75-1, MCF-7, OVCAR-5 (TP53 WT), MDA-MB-453 (TP53 NULL)", "value": "insensitive (if the Span did not exceed >50%, the cell line was considered insensitive)"}]}
